The source made the active and inactive calls. The rule behind the calls is not given here.
What was measured:
[1] = biological target: T1, Endothelin-1 receptor (Homo sapiens, UniProt P25101); assay: Displacement of [125I]endhothelin-1 from human ETA receptor stably expressed in CHO cells Membrane at 25 degC incubated for 3 hrs by radioligand competition binding assay; format: cell membranes
T1 sequence (P25101 whole entry): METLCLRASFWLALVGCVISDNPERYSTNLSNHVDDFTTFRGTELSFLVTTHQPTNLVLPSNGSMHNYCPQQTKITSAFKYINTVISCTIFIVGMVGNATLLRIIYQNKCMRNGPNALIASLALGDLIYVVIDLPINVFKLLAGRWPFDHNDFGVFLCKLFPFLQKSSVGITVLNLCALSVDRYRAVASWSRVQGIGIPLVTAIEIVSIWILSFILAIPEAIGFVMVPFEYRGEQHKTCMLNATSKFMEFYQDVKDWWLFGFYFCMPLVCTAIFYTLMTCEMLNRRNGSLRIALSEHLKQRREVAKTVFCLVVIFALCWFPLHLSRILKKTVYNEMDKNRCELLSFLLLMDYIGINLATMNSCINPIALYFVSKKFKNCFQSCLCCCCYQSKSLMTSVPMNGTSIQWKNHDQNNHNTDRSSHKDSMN

[2] = biological target: Adenosine receptor A1 (Homo sapiens) (UniProt P30542); assay: Displacement of [3H]DPCPX from human recombinant Adenosine A1 receptor at 10 uM incubated for 60 mins by radiometric based scintillation counter assay relative to control
Sequence of Adenosine receptor A1 (Homo sapiens) (P30542 whole entry): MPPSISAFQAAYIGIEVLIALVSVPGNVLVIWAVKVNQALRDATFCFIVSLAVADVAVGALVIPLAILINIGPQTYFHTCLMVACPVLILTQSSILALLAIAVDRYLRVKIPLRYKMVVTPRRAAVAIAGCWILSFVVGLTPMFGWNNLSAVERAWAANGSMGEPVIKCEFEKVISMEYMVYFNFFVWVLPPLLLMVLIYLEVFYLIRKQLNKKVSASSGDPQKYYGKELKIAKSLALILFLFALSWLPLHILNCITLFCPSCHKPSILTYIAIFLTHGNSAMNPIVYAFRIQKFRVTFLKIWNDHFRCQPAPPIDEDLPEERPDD

[3] = organism: Rattus norvegicus; assay: Displacement of [3H]RX 821002 from rat brain […] at 10 uM incubated for 60 mins by radiometric based scintillation counter assay relative to control; format: tissue-based
[4] = biological target: Sodium-dependent noradrenaline transporter (Homo sapiens) (UniProt P23975); assay: Inhibition of human norepinephrine expressed in CHO cells at 10 uM incubated for 180 mins by radiometric based scintillation counter assay relative to control; format: cell-based
Sequence of Sodium-dependent noradrenaline transporter (Homo sapiens) (P23975 whole entry): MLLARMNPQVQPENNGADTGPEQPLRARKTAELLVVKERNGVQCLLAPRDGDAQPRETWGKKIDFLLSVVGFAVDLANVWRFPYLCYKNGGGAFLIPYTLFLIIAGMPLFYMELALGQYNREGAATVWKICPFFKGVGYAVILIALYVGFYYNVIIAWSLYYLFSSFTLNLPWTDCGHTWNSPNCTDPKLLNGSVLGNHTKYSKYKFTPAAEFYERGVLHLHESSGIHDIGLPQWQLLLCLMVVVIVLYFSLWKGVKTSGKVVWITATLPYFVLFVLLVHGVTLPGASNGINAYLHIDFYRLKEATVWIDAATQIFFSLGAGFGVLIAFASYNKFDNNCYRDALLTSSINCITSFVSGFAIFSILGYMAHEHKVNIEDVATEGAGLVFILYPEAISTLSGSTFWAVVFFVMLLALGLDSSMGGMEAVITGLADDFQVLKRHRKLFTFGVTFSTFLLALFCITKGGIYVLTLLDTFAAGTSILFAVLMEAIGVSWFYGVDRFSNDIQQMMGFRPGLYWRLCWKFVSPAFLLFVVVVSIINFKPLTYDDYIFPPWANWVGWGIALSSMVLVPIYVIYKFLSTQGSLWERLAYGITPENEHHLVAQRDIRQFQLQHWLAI

[5] = biological target: Type-2 angiotensin II receptor (Homo sapiens) (UniProt P50052); assay: Displacement of [125I]CGP 42112A from human recombinant angiotensin AT2 receptor at 10 uM incubated for 240 mins by radiometric based scintillation counter assay relative to control
Sequence of Type-2 angiotensin II receptor (Homo sapiens) (P50052 whole entry): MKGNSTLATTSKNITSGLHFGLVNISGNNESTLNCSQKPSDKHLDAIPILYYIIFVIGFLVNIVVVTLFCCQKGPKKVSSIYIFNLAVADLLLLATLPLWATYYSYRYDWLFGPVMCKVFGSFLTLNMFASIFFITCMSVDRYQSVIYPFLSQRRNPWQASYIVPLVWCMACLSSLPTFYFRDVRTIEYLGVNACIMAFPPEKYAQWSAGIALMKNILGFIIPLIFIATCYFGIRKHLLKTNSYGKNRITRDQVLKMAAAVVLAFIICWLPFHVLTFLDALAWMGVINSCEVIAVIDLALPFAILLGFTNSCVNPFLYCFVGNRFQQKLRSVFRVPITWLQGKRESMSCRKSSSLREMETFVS

[6] = organism: Homo sapiens; assay: Displacement of [3H] PK 11195 from central-type benzodiazepine (unknown origin) at 10 uM incubated for 15 mins by radiometric based scintillation counter assay relative to control
[7] = biological target: Cholecystokinin receptor type A (Homo sapiens) (UniProt P32238); assay: Displacement of [125I]CCK-8s from human recombinant cholecystokinin A receptor at 10 uM incubated for 60 mins by radiometric based scintillation counter assay relative to control
[8] = biological target: Gastrin/cholecystokinin type B receptor (Homo sapiens) (UniProt P32239); assay: Displacement of [125I]CCK-8s from human recombinant cholecystokinin B receptor at 10 uM incubated for 60 mins by radiometric based scintillation counter assay relative to control
Sequence of Gastrin/cholecystokinin type B receptor (Homo sapiens) (P32239 whole entry): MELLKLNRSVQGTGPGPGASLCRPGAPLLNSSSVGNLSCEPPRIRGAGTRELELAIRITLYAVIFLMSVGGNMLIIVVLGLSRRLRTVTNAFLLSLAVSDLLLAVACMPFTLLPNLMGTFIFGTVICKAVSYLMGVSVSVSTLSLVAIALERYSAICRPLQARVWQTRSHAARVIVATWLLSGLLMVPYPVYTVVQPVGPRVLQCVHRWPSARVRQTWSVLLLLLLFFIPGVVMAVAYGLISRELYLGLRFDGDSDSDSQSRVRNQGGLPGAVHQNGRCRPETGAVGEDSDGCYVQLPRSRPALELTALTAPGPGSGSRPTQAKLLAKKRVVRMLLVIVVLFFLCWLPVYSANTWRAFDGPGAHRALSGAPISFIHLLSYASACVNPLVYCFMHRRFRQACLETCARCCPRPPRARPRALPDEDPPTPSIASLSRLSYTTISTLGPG

[9] = biological target: Histamine H2 receptor (Homo sapiens) (UniProt P25021); assay: Displacement of [125I]APT from human recombinant histamine H2 receptor at 10 uM incubated for 120 mins by radiometric based scintillation counter assay relative to control
Sequence of Histamine H2 receptor (Homo sapiens) (P25021 whole entry): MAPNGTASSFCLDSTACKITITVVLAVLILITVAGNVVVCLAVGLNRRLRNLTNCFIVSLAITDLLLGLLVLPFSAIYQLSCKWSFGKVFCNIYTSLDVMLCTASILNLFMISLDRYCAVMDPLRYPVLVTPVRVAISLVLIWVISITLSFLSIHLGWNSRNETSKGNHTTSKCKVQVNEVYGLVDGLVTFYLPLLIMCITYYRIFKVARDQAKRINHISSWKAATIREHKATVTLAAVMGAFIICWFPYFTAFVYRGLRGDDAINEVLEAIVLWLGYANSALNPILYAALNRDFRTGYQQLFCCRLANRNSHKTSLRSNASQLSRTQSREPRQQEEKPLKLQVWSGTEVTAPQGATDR

[10] = biological target: Muscarinic acetylcholine receptor M4 (Homo sapiens) (UniProt P08173); assay: Displacement of [3H]4-DAMP from human recombinant muscarinic M4 receptor at 10 uM incubated for 60 mins by radiometric based scintillation counter assay relative to control
Sequence of Muscarinic acetylcholine receptor M4 (Homo sapiens) (P08173 whole entry): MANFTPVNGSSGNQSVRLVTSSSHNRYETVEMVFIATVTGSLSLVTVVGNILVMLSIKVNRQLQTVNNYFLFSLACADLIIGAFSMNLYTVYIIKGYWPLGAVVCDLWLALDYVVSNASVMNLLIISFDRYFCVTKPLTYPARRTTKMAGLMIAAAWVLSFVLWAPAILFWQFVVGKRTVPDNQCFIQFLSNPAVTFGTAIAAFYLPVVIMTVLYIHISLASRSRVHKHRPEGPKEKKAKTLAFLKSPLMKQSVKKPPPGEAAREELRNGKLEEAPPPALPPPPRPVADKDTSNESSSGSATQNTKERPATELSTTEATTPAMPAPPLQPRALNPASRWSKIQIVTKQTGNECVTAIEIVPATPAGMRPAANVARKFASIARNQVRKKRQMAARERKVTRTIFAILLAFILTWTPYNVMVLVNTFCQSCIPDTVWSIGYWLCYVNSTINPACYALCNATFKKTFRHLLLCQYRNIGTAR

[11] = biological target: Muscarinic acetylcholine receptor M5 (Homo sapiens) (UniProt P08912); assay: Displacement of [3H]4-DAMP from human recombinant muscarinic M5 receptor at 10 uM incubated for 60 mins by radiometric based scintillation counter assay relative to control
Sequence of Muscarinic acetylcholine receptor M5 (Homo sapiens) (P08912 whole entry): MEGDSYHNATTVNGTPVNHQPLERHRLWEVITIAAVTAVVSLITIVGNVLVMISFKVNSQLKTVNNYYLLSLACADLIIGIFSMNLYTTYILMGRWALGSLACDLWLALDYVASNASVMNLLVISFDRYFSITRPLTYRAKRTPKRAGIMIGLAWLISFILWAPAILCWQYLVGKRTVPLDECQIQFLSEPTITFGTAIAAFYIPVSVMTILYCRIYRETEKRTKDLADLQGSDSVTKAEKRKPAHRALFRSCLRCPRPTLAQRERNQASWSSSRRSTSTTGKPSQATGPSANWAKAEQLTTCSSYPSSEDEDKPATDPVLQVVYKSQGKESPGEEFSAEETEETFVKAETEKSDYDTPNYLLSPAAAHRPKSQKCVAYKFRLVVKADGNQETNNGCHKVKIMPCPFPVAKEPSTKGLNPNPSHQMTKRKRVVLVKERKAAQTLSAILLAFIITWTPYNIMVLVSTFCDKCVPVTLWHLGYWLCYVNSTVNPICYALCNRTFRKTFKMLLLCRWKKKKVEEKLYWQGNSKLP

[12] = biological target: Substance-P receptor (Homo sapiens) (UniProt P25103); assay: Displacement of [125I]-Substance P LYS3 from human Neurokinin-1 receptor at 10 uM incubated for 30 mins by radiometric based scintillation counter assay relative to control
Sequence of Substance-P receptor (Homo sapiens) (P25103 whole entry): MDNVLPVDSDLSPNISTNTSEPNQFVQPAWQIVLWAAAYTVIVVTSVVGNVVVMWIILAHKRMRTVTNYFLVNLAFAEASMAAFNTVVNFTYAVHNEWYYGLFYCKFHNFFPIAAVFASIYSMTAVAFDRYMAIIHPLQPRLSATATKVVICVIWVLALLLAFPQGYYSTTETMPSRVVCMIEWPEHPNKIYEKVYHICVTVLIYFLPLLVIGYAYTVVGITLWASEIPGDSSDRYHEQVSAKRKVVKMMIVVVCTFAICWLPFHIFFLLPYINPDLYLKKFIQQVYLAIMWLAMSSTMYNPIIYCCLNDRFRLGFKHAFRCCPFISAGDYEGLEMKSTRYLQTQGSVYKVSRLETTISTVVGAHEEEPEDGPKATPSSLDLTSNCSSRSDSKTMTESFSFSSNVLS

[13] = biological target: Delta-type opioid receptor (Homo sapiens) (UniProt P41143); assay: Displacement of [3H]DPDPE from human recombinant delta-Opioid receptor at 10 uM incubated for 60 mins by radiometric based scintillation counter assay relative to control; conditions: filed as antagonist
Sequence of Delta-type opioid receptor (Homo sapiens) (P41143 whole entry): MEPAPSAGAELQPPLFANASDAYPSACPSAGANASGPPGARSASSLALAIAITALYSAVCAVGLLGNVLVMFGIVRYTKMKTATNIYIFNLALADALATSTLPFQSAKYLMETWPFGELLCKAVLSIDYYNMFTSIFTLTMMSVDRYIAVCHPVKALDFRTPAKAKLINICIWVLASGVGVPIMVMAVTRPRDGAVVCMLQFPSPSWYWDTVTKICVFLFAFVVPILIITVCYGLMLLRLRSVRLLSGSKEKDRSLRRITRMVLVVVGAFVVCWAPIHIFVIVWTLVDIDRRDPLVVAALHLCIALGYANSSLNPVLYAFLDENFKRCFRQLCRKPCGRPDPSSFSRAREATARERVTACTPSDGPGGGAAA

[14] = organism: Homo sapiens; assay: Inhibition of Thromboxane A2 receptor/prostaglandin H2 receptor (unknown origin) at 10 uM by radioligand binding assay relative to control
[15] = biological target: 5-hydroxytryptamine receptor 5A (Homo sapiens) (UniProt P47898); assay: Displacement of [3H]LSD from human recombinant 5-Hydroxytryptamine 5A at 10 uM incubated for 120 mins by radiometric based scintillation counter assay relative to control
Sequence of 5-hydroxytryptamine receptor 5A (Homo sapiens) (P47898 whole entry): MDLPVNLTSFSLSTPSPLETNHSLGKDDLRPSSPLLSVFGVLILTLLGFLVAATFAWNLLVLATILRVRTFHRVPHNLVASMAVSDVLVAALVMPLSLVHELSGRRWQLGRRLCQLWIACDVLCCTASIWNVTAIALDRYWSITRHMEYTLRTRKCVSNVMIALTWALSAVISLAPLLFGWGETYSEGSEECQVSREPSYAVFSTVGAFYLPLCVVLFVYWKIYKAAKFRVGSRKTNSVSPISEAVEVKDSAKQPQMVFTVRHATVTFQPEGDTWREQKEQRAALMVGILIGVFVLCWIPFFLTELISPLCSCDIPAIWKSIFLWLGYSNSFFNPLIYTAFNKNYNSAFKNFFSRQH

[16] = biological target: Sigma non-opioid intracellular receptor 1 (Homo sapiens) (UniProt Q99720); assay: Displacement of [3H]DTG from human sigma-Receptor at 10 uM incubated for 120 mins by radiometric based scintillation counter assay relative to control
Sequence of Sigma non-opioid intracellular receptor 1 (Homo sapiens) (Q99720 whole entry): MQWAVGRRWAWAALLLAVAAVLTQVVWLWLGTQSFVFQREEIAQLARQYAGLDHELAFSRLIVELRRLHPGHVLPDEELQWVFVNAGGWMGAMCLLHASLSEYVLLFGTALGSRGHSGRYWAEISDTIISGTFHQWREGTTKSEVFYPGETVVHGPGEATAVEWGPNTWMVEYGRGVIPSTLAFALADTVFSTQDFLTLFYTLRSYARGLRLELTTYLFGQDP

[17] = biological target: Vasoactive intestinal polypeptide receptor 1 (Homo sapiens) (UniProt P32241); assay: Displacement of [125I]VIP from human recombinant Vasoactive intestinal peptide receptor at 10 uM incubated for 60 mins by radiometric based scintillation counter assay relative to control
Sequence of Vasoactive intestinal polypeptide receptor 1 (Homo sapiens) (P32241 whole entry): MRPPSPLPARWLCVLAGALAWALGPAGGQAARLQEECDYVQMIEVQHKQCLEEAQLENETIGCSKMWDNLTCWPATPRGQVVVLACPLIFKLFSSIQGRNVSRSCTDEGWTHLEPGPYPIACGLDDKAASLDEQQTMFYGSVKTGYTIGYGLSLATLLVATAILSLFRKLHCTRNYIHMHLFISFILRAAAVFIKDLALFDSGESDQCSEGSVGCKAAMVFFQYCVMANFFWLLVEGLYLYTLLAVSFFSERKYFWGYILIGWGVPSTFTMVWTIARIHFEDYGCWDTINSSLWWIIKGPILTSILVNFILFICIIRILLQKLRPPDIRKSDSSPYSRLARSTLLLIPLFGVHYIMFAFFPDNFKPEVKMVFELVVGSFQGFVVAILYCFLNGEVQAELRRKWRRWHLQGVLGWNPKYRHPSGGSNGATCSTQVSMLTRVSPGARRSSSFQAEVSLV

[18] = biological target: T2, Endothelin-1 receptor (Homo sapiens) (UniProt P25101); assay: Antagonist activity at ETA receptor in human Pericardial smooth muscle cell assessed as inhibition of […] in presence of myo-[3H] inositol by anion exchange chromatography; format: functional, cell-based
T2 sequence (whole entry): T1 sequence (P25101 whole entry)

[19] = biological target: T3, Endothelin-1 receptor (Rattus norvegicus, UniProt P26684); assay: Antagonist activity to ETA receptor in Sprague-Dawley rat aorta assessed as induction of vessel ring contraction preincubated for 15 mins; format: functional, tissue-based; conditions: read-out: pA2 (converted)
T3 sequence (P26684 whole entry): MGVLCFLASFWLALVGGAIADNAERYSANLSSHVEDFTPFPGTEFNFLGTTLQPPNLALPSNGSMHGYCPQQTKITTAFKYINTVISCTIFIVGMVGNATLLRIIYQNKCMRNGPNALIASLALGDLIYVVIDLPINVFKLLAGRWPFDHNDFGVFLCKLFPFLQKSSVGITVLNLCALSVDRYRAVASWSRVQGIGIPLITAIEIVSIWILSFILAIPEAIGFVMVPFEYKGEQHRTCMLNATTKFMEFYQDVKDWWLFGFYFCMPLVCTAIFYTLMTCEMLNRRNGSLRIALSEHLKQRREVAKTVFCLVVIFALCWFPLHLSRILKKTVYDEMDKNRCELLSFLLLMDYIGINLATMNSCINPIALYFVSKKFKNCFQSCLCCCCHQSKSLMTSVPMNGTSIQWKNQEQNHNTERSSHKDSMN

[20] = Half life in Sprague-Dawley rat at 10 mg/kg, po administered for 12 hrs by HPLC analysis; format: ADME, organism-based; conditions: in vivo
[21] = Half life in cynomolgus monkey at 5 mg/kg, po administered for 12 hrs by HPLC analysis; format: ADME, organism-based, Macaca fascicularis; conditions: in vivo
[22] = Oral bioavailability in Sprague-Dawley rat at 10 mg/kg administered for 12 hrs by HPLC analysis; format: ADME, organism-based; conditions: in vivo
[23] = Oral bioavailability in Beagle dog at 5 mg/kg administered for 12 hrs by HPLC analysis; format: ADME, organism-based, Canis lupus familiaris; conditions: in vivo
[24] = biological target: T4, Endothelin-1 receptor (Rattus norvegicus) (UniProt P26684); assay: In vivo antagonist activity to ETA receptor in endothelin-1 induced Sprague-Dawley rat assessed as inhibition of peak blood pressure administered for 1 to 4 hrs; format: functional, organism-based; conditions: dose 3-100 mg/kg, route po, time 1-4 hrs
T4 sequence (whole entry): T3 sequence (P26684 whole entry)

CCCCN(CCCC)C(=O)CN1[C@H](c2cc(OC)c3c(c2)OCO3)C[C@@H](C(=O)O)[C@@H]1CC(C)(C)CCC
IC50 [1]: 0.49 nM | inhibition [2]: 23% | inhibition [3]: 18% | inhibition [4]: < 10% | inhibition [5]: < 10% | inhibition [6]: < 10% | inhibition [7]: < 10% | inhibition [8]: < 10% | inhibition [9]: < 10% | inhibition [10]: < 10% | inhibition [11]: < 10% | inhibition [12]: < 10% | inhibition [13]: 62% | inhibition [14]: 16% | inhibition [15]: < 10% | inhibition [16]: < 10% | inhibition [17]: < 10% | Activity [18]: inactive | Kb [19]: 5.13 nM | half-life [20]: 2.5 h | half-life [21]: 1 h | bioavailability [22]: 47.7% | bioavailability [23]: 19.9% | Activity [24]: Dose-Dependent Effect
